The test system of data set [1] is Lewis rats with adjuvant induced arthritis. Briefly: Adjuvant-induced arthritis (AIA) in Lewis rats: paw swelling, erythema, clinical and histological scores. In kind it is in vivo, rat.
A further data set relates to rat ClA model. Briefly: Rat ClA model, paw swelling and erythema, disease severity. The format is in vivo. The following applies: antibody 3 mg/kg i.v., compounds 30, 10, 3 mg/kg b.i.d. As to the method: Anti alpha-4 antibodies, and the compounds of Formulae W and Y were tested in the rat ClA model according to the methods shown in Table 14 below.
(§1) The results in FIG. 6 show the results for compounds. There were 8 rats per group in the efficacy study. Paw swelling and erythema were measured daily and the tarsal paws collected for histological analysis at the end of the study. Plasma which was heparinized was collected at 12 hours (i.e., the trough level) and at 4 horus after the last dose for compound measurement (FIG. 6).

The conditions of data set [2]: rat, in vivo, 3 mg/kg.
Data set [3] concerns DBA/1 LacJ mice with collagen-induced arthritis. The data set can be described thus: Murine collagen-induced arthritis (ClA) model, clinical scores. The following applies: therapeutic ClA model, 100 mg/kg b.i.d. (Table 12). In kind it is in vivo, mouse. As to the method: A murine collagen-induced arthritis (ClA) model was used to examine the pharmacological effect of anti-alpha4-integrin antibodies prophylactically, semi-therapeutically and therapeutically. Dosing of the antibody was begun on day 20 for the prophylactic animals. […] The results seen with the treatment of the ClA mice is seen in FIG. 1.
Peripheral blood leucocytes (PBLs) from mice treated with anti-alpha4, anti-α4β7 and anti-VCAM1 antibodies were collected at 4, 12 and 24 hours after antibody dosing. Cells were stained with goat anti-rat antibodies to confirm antibodies in circulation.
(§2) 100 DBA/1 LacJ male mice, ages 6-8 weeks were obtained from Jackson Laboratories. The mice were immunized at Day 0 as follows: 100 μg bovine type II collagen (Chondrex) in Complete Freund's adjuvant (CFA, Sigma) were injected into the mice. At Day 21, another 100 μg bovine type II collagen (Chondrex) in Incomplete Freund's Adjuvant (IFA, Sigma) was injected into the mice. Treatment with the compound began when the animals had the disease (i.e., 100% therapeutic).
The mice are scored daily after the boost. […] Treatment continued for 3-weeks-of dosing. Dosing was every other day for the antibody group and control group.
DBA/1 LacJ mice, aged 8 weeks will be immunized with bovine collagen (100 μg/mice) in CFA and re-challenge on day 21 in IFA.

Data set [4] in a line: Blood levels of compound in murine ClA model. In kind it is in vivo. Particulars: male, DBA/1 LacJ, mouse, whole blood, 100 mg/kg b.i.d., 16 hours after dosing. The protocol:
The effect of the compound of Formula P was evaluated in a therapeutica ClA model.
as §2

A short description of data set [5]: Blood/plasma levels of compound in rat ClA model (relative to receptor saturation). The format is in vivo. The following applies: at 12 hours, all concentrations tested. The protocol:
as §1

Data set [6] can be described thus: Plasma/blood compound levels in AIA rats (PK, relative to receptor saturation). The following applies: 12 hours after dosing, all concentrations tested.
In a further data set the target is VLA-4 (Homo sapiens, UniProt P13612). The following applies: cited from earlier work.
Data set [7] has as its system human lymphocyte binding to rat brain cells. Particulars: rat brain cells stimulated with tumor necrosis factor; cited from earlier work.

As for `Cc1ccc(S(=O)(=O)N2CCC[C@H]2C(=O)N[C@@H](Cc2ccc(OC(=O)N3CCN(CCO)CC3)cc2)C(=O)OC(C)(C)C)cc1`, the melting point was 158 to 160 °C.
Turning to `CC(C)OC(=O)[C@H](Cc1ccc(OC(=O)N2CCN(C)CC2)cc1)NC(=O)[C@H]1N(S(=O)(=O)c2cccnc2)CSC1(C)C` [Formula N, N-[N-(3-pyridinesulfonyl)-L-3,3-dimethyl-4-thiaprolyl]-O-[I-methylpiperazin-4-ylcarbonyl]-L-tyrosine isopropyl ester], the “clinical and histological scores” value in [1] (AIA animal model, 30 mg/kg b.i.d.) is “ameliorate clinical and histological scores”. Also, the disease severity result in data set [1] (AIA rats, 3 mg/kg) is “no effect on disease severity”; in the data set on rat ClA model it was “neither the compound of Formula N nor Y had any impact on disease severity”. Moreover, the “compound present in the blood relative to receptor saturation” value in data set [2] is “below receptor saturation”.
`CCN(CC)c1ncc(N(CC)S(=O)(=O)c2ccc(Cl)cc2)c(NC(Cc2ccc(OC(=O)N3CCCC3)cc2)C(=O)O)n1` (stereo not drawn) [Formula P]: the disease result in data set [1] (AIA rats, all concentrations tested (30, 10, 3 mg/kg b.i.d. p.o.)) is listed as “ameliorate disease at all concentrations tested”. Moreover, the disease progression entry in data set [3] is recorded as “no effect on disease progression”. Moreover, in data set [4], the concentration at 16 h was determined as 1000 ng/mL. For the same molecule, the “blood levels of the compound relative to receptor saturation” value in [5] is recorded as “above receptor saturation”. In addition, the “levels of the compound relative to receptor saturation” value in data set [6] is “above receptor saturation”.

B1: mu MAb 21.6: mouse monoclonal antibody specific for the α4 subunit of VLA-4; donor immunoglobulin of the humanized antibodies (antibody, V domains shown)
VH: EVQLQQSGAELVKPGASVKLSCTASGFNIKDTYIHCVKQRPEQGLEWIGRIDPANGYTKYDPKFQGKATITADTSSNTAYLQLSSLTSEDTAVYFCAREGYYGNYGVYAMDYWGQGTSVTVSSAK
VL: DIQMTQSPSSLSASLGGKVTITCKTSQDINKYMAWYQHKPGKRPRLLIHYTSALQPGIPSRFSGSGSGRDYSFNISNLEPEDIATYYCLQYDNLWTFGGGTKLEIK
Turning to B1, in the data set with VLA-4, the “binding affinity for VLA-4” value is on record as “about 10^9 M^−1”. Further, the “human lymphocyte binding to tissue cultures of rat brain cells” value in data set [7] is “inhibit”.

The values are drawn from US20050074451A1, “Methods and compositions for treating rheumatoid arthritis” (Elan Pharmaceuticals, Inc., priority 2003, published 2005).
